Laboratory results: the supplement of paper PMC10307832

Experiments:
Assay in all cases: relative viability (nuclei count vs DMSO), 5 days (fraction); higher = more cells survive
NCI-H1915 = tested on: NCI-H1915
Summary of the method: (§1)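 Lung cancer cell lines in 1536-well plates were dosed by pin tool the day after seeding, either with one drug alone or with a fixed anchor-drug dose plus five library-drug doses (not always all listed) in √10 steps. After 5 days, cells were fixed and their nuclei stained in one step (final 0.05% Triton X-100, 1% formaldehyde, 1 ug/ml Hoechst), then counted on 4× images. Relative viability is the nuclei count in treated wells divided by that in vehicle wells. Values are medians of duplicate plates.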

NCI-H647 = tested on: NCI-H647
Summary of the method: as §1

NCI-H2023 = tested on: NCI-H2023
Summary of the method: as §1

PC-14 = tested on: PC-14
Summary of the method: as §1

NCI-H1734 = tested on: NCI-H1734
Summary of the method: as §1

NCI-H1563 = tested on: NCI-H1563
Summary of the method: as §1

NCI-H2085 = tested on: NCI-H2085
Summary of the method: as §1

EPLC-272H = tested on: EPLC-272H
Summary of the method: as §1

NCI-H2126 = tested on: NCI-H2126
Summary of the method: as §1

SK-LU-1 = tested on: SK-LU-1
Summary of the method: as §1

SW 1573 = tested on: SW 1573
Summary of the method: as §1

H3255 = tested on: H3255
Summary of the method: as §1

NCI-H2347 = tested on: NCI-H2347
Summary of the method: as §1

LXF-289 = tested on: LXF-289
Summary of the method: as §1

NCI-H727 = tested on: NCI-H727
Summary of the method: as §1

HOP-62 = tested on: HOP-62
Summary of the method: as §1

NCI-H1993 = tested on: NCI-H1993
Summary of the method: as §1

LCLC-97TM1 = tested on: LCLC-97TM1
Summary of the method: as §1

EMC-BAC-2 = tested on: EMC-BAC-2
Summary of the method: as §1

NCI-H661 = tested on: NCI-H661
Summary of the method: as §1

NCI-H322M = tested on: NCI-H322M
Summary of the method: as §1

NCI-H2009 = tested on: NCI-H2009
Summary of the method: as §1

`Cc1sc2c(c1C)C(c1ccc(Cl)cc1)=N[C@@H](CC(=O)OC(C)(C)C)c1nnc(C)n1-2` [JQ1] + CS(=O)(=O)CCNCc1ccc(-c2ccc3ncnc(Nc4ccc(OCc5cccc(F)c5)c(Cl)c4)c3c2)o1 [Lapatinib] (partner 2 µM) showed a relative viability (NCI-H1915; first compound 0.04 µM) of 0.976, a relative viability (NCI-H1915; first compound 0.1265 µM) of 0.574 and a relative viability (NCI-H1915; first compound 0.4 µM) of 0.917. For the same molecule, the relative viability (NCI-H1915; first compound 1.265 µM) was 0.582, the relative viability (NCI-H1915; first compound 4 µM) was 0.315 and the relative viability (NCI-H647; first compound 0.04 µM) was 0.997. For the same molecule, the relative viability (NCI-H647; first compound 0.1265 µM) was 0.509, the relative viability (NCI-H647; first compound 0.4 µM) was 0.439 and the relative viability (NCI-H647; first compound 1.265 µM) was 0.104. It also gave a relative viability (NCI-H647; first compound 4 µM) of 0.0821, a relative viability (NCI-H2023; first compound 0.04 µM) of 0.738 and a relative viability (NCI-H2023; first compound 0.1265 µM) of 0.463. It also gave a relative viability (NCI-H2023; first compound 0.4 µM) of 0.443, a relative viability (NCI-H2023; first compound 1.265 µM) of 0.334 and a relative viability (NCI-H2023; first compound 4 µM) of 0.258. The relative viability (PC-14; first compound 0.04 µM) was 0.307, the relative viability (PC-14; first compound 0.1265 µM) was 0.245 and the relative viability (PC-14; first compound 0.4 µM) was 0.352. It also gave a relative viability (PC-14; first compound 1.265 µM) of 0.284, a relative viability (PC-14; first compound 4 µM) of 0.211 and a relative viability (NCI-H1734; first compound 0.04 µM) of 1.08. For the same molecule, the relative viability (NCI-H1734; first compound 0.1265 µM) was 0.908, the relative viability (NCI-H1734; first compound 0.4 µM) was 1.03 and the relative viability (NCI-H1734; first compound 1.265 µM) was 0.657. For the same molecule, the relative viability (NCI-H1734; first compound 4 µM) was 1.04, the relative viability (NCI-H1563; first compound 0.04 µM) was 0.89 and the relative viability (NCI-H1563; first compound 0.1265 µM) was 0.72. It also gave a relative viability (NCI-H1563; first compound 0.4 µM) of 0.662, a relative viability (NCI-H1563; first compound 1.265 µM) of 0.717 and a relative viability (NCI-H1563; first compound 4 µM) of 0.771. For the same molecule, the relative viability (NCI-H2085; first compound 0.04 µM) was 0.748, the relative viability (NCI-H2085; first compound 0.1265 µM) was 0.723 and the relative viability (NCI-H2085; first compound 0.4 µM) was 0.621. The relative viability (NCI-H2085; first compound 1.265 µM) was 0.409, the relative viability (NCI-H2085; first compound 4 µM) was 0.396 and the relative viability (EPLC-272H; first compound 0.04 µM) was 0.937. The relative viability (EPLC-272H; first compound 0.1265 µM) was 0.98, the relative viability (EPLC-272H; first compound 0.4 µM) was 0.994 and the relative viability (EPLC-272H; first compound 1.265 µM) was 0.519. For the same molecule, the relative viability (EPLC-272H; first compound 4 µM) was 0.5, the relative viability (NCI-H2126; first compound 0.04 µM) was 0.759 and the relative viability (NCI-H2126; first compound 0.1265 µM) was 0.746. It also gave a relative viability (NCI-H2126; first compound 0.4 µM) of 0.755, a relative viability (NCI-H2126; first compound 1.265 µM) of 0.604 and a relative viability (NCI-H2126; first compound 4 µM) of 0.68. For the same molecule, the relative viability (SK-LU-1; first compound 0.04 µM) was 0.891, the relative viability (SK-LU-1; first compound 0.1265 µM) was 0.709 and the relative viability (SK-LU-1; first compound 0.4 µM) was 0.838. For the same molecule, the relative viability (SK-LU-1; first compound 1.265 µM) was 0.388, the relative viability (SK-LU-1; first compound 4 µM) was 0.271 and the relative viability (SW 1573; first compound 0.04 µM) was 1.13. The relative viability (SW 1573; first compound 0.1265 µM) was 0.886, the relative viability (SW 1573; first compound 0.4 µM) was 0.881 and the relative viability (SW 1573; first compound 1.265 µM) was 0.61. For the same molecule, the relative viability (SW 1573; first compound 4 µM) was 0.512, the relative viability (H3255; first compound 0.04 µM) was 0.226 and the relative viability (H3255; first compound 0.1265 µM) was 0.251. It also gave a relative viability (H3255; first compound 0.4 µM) of 0.248, a relative viability (H3255; first compound 1.265 µM) of 0.169 and a relative viability (H3255; first compound 4 µM) of 0.227. It also gave a relative viability (NCI-H2347; first compound 0.04 µM) of 0.934, a relative viability (NCI-H2347; first compound 0.1265 µM) of 0.623 and a relative viability (NCI-H2347; first compound 0.4 µM) of 0.831. It also gave a relative viability (NCI-H2347; first compound 1.265 µM) of 0.701, a relative viability (NCI-H2347; first compound 4 µM) of 0.679 and a relative viability (LXF-289; first compound 0.04 µM) of 0.915. It also gave a relative viability (LXF-289; first compound 0.1265 µM) of 0.862, a relative viability (LXF-289; first compound 0.4 µM) of 0.917 and a relative viability (LXF-289; first compound 1.265 µM) of 0.851. It also gave a relative viability (LXF-289; first compound 4 µM) of 0.704, a relative viability (NCI-H727; first compound 0.04 µM) of 0.727 and a relative viability (NCI-H727; first compound 0.1265 µM) of 0.695. For the same molecule, the relative viability (NCI-H727; first compound 0.4 µM) was 0.506, the relative viability (NCI-H727; first compound 1.265 µM) was 0.361 and the relative viability (NCI-H727; first compound 4 µM) was 0.469. It also gave a relative viability (HOP-62; first compound 0.04 µM) of 1.07, a relative viability (HOP-62; first compound 0.1265 µM) of 0.724 and a relative viability (HOP-62; first compound 0.4 µM) of 0.636. The relative viability (HOP-62; first compound 1.265 µM) was 0.241, the relative viability (HOP-62; first compound 4 µM) was 0.126 and the relative viability (NCI-H1993; first compound 0.04 µM) was 0.825. For the same molecule, the relative viability (NCI-H1993; first compound 0.1265 µM) was 0.812, the relative viability (NCI-H1993; first compound 0.4 µM) was 0.676 and the relative viability (NCI-H1993; first compound 1.265 µM) was 0.702. For the same molecule, the relative viability (NCI-H1993; first compound 4 µM) was 0.65, the relative viability (LCLC-97TM1; first compound 0.1265 µM) was 0.805 and the relative viability (LCLC-97TM1; first compound 0.4 µM) was 0.781. The relative viability (LCLC-97TM1; first compound 1.265 µM) was 0.243, the relative viability (LCLC-97TM1; first compound 4 µM) was 0.252 and the relative viability (EMC-BAC-2; first compound 0.04 µM) was 0.841. The relative viability (EMC-BAC-2; first compound 0.1265 µM) was 0.905, the relative viability (EMC-BAC-2; first compound 0.4 µM) was 0.949 and the relative viability (EMC-BAC-2; first compound 1.265 µM) was 0.551. It also gave a relative viability (EMC-BAC-2; first compound 4 µM) of 0.495, a relative viability (NCI-H661; first compound 0.04 µM) of 0.402 and a relative viability (NCI-H661; first compound 0.1265 µM) of 0.527. It also gave a relative viability (NCI-H661; first compound 0.4 µM) of 0.339, a relative viability (NCI-H661; first compound 1.265 µM) of 0.27 and a relative viability (NCI-H661; first compound 4 µM) of 0.321. The relative viability (NCI-H322M; first compound 0.04 µM) was 0.634, the relative viability (NCI-H322M; first compound 0.1265 µM) was 0.658 and the relative viability (NCI-H322M; first compound 0.4 µM) was 0.572. For the same molecule, the relative viability (NCI-H322M; first compound 1.265 µM) was 0.506, the relative viability (NCI-H322M; first compound 4 µM) was 0.467 and the relative viability (NCI-H2009; first compound 0.04 µM) was 0.961. For the same molecule, the relative viability (NCI-H2009; first compound 0.1265 µM) was 0.412, the relative viability (NCI-H2009; first compound 0.4 µM) was 0.336 and the relative viability (NCI-H2009; first compound 1.265 µM) was 0.285. It also gave a relative viability (NCI-H2009; first compound 4 µM) of 0.251.
